From patent publication US20100267561A1, “HERBICIDAL PYRIDAZINONE DERIVATIVES” (priority 2007, published 2010)
Like-named read-outs stand apart in the source and are kept apart here.

Assays:
Test in all cases: Test B pre-/postemergence plant response
Assay type in all cases: in vivo
wild oat (Avena fatua) = conditions: for pest or weed control at 31 g/ha / pest or weed control at 62 g/ha: Avena fatua, read-out: Plant response rating, Oat, Wild; for pest or weed control at 31 g/ha: 31 g ai/ha; for pest or weed control at 62 g/ha: 62 g ai/ha, 100 complete control
In short: (§1)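 Preemergence and postemergence (plants 2-18 cm, 1- to 4-leaf stage) applications used test chemicals in a non-phytotoxic solvent with surfactant. Plants were held in a greenhouse 13 to 15 days, then rated visually against controls on a 0-100 scale (0 no effect, 100 complete control).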

[1] = test system: woolly cupgrass (Eriochloa villosa); conditions: for pest or weed control at 31 g/ha: 31 g ai/ha; for pest or weed control at 62 g/ha: 62 g ai/ha, 100 complete control
In short: as §1

[2] = test system: blackgrass (Alopecurus myosuroides); conditions: for pest or weed control at 31 g/ha: 31 g ai/ha; for pest or weed control at 62 g/ha: 62 g ai/ha, 100 complete control
In short: as §1

[3] = test system: common ragweed (Ambrosia elation); conditions: for pest or weed control at 31 g/ha / pest or weed control at 62 g/ha: Ambrosia, read-out: Plant response rating, Ragweed; for pest or weed control at 31 g/ha: 31 g ai/ha; for pest or weed control at 62 g/ha: 62 g ai/ha, 100 complete control
In short: as §1

corn (Zea mays) = conditions: for Corn plant response rating (crop injury, 0 = no effect, 100 = complete kill) at 31 g/ha: 31 g ai/ha; for Corn plant response rating (crop injury, 0 = no effect, 100 = complete kill) at 62 g/ha: 62 g ai/ha, 100 complete control
In short: as §1

[4] = test system: green foxtail (Setaria viridis); conditions: for pest or weed control at 31 g/ha: 31 g ai/ha; for pest or weed control at 62 g/ha: 62 g ai/ha, 100 complete control
In short: as §1

[5] = test system: pigweed (Amaranthus retroflexus); conditions: for pest or weed control at 31 g/ha / pest or weed control at 62 g/ha: Amaranthus retroflexus, read-out: Plant response rating, Pigweed; for pest or weed control at 31 g/ha: 31 g ai/ha; for pest or weed control at 62 g/ha: 62 g ai/ha, 100 complete control
In short: as §1

[6] = test system: velvetleaf (Abutilon theophrasti); conditions: for pest or weed control at 31 g/ha / pest or weed control at 62 g/ha: Abutilon theophrasti, read-out: Plant response rating, Velvetleaf; for pest or weed control at 31 g/ha: 31 g ai/ha; for pest or weed control at 62 g/ha: 62 g ai/ha, 100 complete control
In short: as §1

[7] = test system: cocklebur (Xanthium strumarium); conditions: for pest or weed control at 31 g/ha: 31 g ai/ha; for pest or weed control at 62 g/ha: 62 g ai/ha, 100 complete control
In short: as §1

[8] = test system: large crabgrass (Digitaria sanguinalis); conditions: for pest or weed control at 31 g/ha: 31 g ai/ha; for pest or weed control at 62 g/ha: 62 g ai/ha, 100 complete control
In short: as §1

[9] = test system: catchweed bedstraw (Galium aparine); conditions: Preemergence
In short: as §1

[10] = test system: lambsquarters (Chenopodium album); conditions: for pest or weed control at 31 g/ha / pest or weed control at 62 g/ha: Chenopodium album, read-out: Plant response rating, Lambsquarters; for pest or weed control at 31 g/ha: 31 g ai/ha; for pest or weed control at 62 g/ha: 62 g ai/ha, 100 complete control
In short: as §1

[11] = test system: yellow nutsedge (Cyperus esculentus); conditions: for pest or weed control at 31 g/ha / pest or weed control at 62 g/ha: Cyperus, read-out: Plant response rating, Nutsedge, Yellow; for pest or weed control at 31 g/ha: 31 g ai/ha; for pest or weed control at 62 g/ha: 62 g ai/ha, 100 complete control
In short: as §1

[12] = 8 g ai/ha, postemergence, 0-100 scale
[13] = 16 g ai/ha, postemergence, 0-100 scale
[14] = post-emergence, Postemergence, scale 0 to 100
[15] = post-emergence, Postemergence, scale 0 to 100, 0 no effect
[16] = pre-emergence, Preemergence, scale 0 to 100 (0 no effect, 100 complete control)
[17] = pre-emergence, Preemergence, 0 to 100 scale, 0 no effect
[18] = Preemergence, 8 g ai/ha, scale 0 to 100 (0 no effect, 100 complete control)
[19] = Preemergence, 16 g ai/ha, scale 0 to 100

Cc1nn(C)c(=O)c(-c2nc(-c3ccc(Cl)cc3)sc2C)c1O [Compound 79, 4-[2-(4-chlorophenyl)-5-methyl-4-thiazolyl]-5-hydroxy-2,6-dimethyl-3(2H)-pyridazinone]
0: Oat, Wild plant response rating (wild oat (Avena fatua); [18]) | Oat, Wild plant response rating (wild oat (Avena fatua); [19]) | Ragweed plant response rating [3, 12] | Ragweed plant response rating [3, 13] | Ragweed plant response rating [3, 18] | Ragweed plant response rating [3, 19] | Corn plant response rating (corn (Zea mays); [12]) | Corn plant response rating (corn (Zea mays); [18]) | Corn plant response rating (corn (Zea mays); [19]) | Pigweed plant response rating [5, 12] | Pigweed plant response rating [5, 13] | Pigweed plant response rating [5, 18] | Pigweed plant response rating [5, 19] | Velvetleaf plant response rating [6, 12] | Velvetleaf plant response rating [6, 13] | Velvetleaf plant response rating [6, 18] | Velvetleaf plant response rating [6, 19] | Cocklebur plant response rating [7, 12] | Cocklebur plant response rating [7, 18] | Cocklebur plant response rating [7, 19] | Galium plant response rating ([9]; 8 g ai/ha, scale 0 to 100 (0 no effect, 100 complete control)) | Galium plant response rating ([9]; 16 g ai/ha, scale 0 to 100) | Lambsquarters plant response rating [10, 12] | Lambsquarters plant response rating [10, 13] | Lambsquarters plant response rating [10, 18] | Lambsquarters plant response rating [10, 19] | Nutsedge, Yellow plant response rating [11, 12] | Nutsedge, Yellow plant response rating [11, 13] | Nutsedge, Yellow plant response rating [11, 18] | Nutsedge, Yellow plant response rating [11, 19]
65: Cupgrass, Woolly plant response rating [1, 19]
75: Foxtail, Green plant response rating [4, 12] | Crabgrass, Large plant response rating [8, 12]
75%: pest or weed control at 31 g/ha ([1]; Eriochloa villosa, post-emergence, Postemergence, scale 0 to 100, read-out: Plant response rating, Cupgrass, Woolly)
35%: Corn plant response rating (crop injury, 0 = no effect, 100 = complete kill) at 62 g/ha (corn (Zea mays); Zea mays, post-emergence, Postemergence, scale 0 to 100, 0 no effect)
70%: pest or weed control at 31 g/ha (wild oat (Avena fatua); [16])
85%: pest or weed control at 16 g/ha ([4]; Setaria viridis, post-emergence, Postemergence, 16 g ai/ha, scale 0 to 100, read-out: Plant response rating, Foxtail, Green) | pest or weed control at 31 g/ha ([8]; Digitaria sanguinalis, post-emergence, Postemergence, scale 0 to 100, read-out: Plant response rating, Crabgrass, Large)
20: Cupgrass, Woolly plant response rating [1, 18] | Crabgrass, Large plant response rating [8, 18]
60%: pest or weed control at 31 g/ha (wild oat (Avena fatua); [14])
95%: pest or weed control at 62 g/ha (wild oat (Avena fatua); [17])
20%: Corn plant response rating (crop injury, 0 = no effect, 100 = complete kill) at 31 g/ha (corn (Zea mays); Zea mays, post-emergence, Postemergence, scale 0 to 100) | pest or weed control at 31 g/ha [10, 16]
50: Blackgrass plant response rating [2, 12]
60: Cupgrass, Woolly plant response rating [1, 12] | Foxtail, Green plant response rating [4, 19]
45: Oat, Wild plant response rating (wild oat (Avena fatua); [13])
50%: pest or weed control at 16 g/ha ([2]; Alopecurus myosuroides, post-emergence, Postemergence, 16 g ai/ha, scale 0 to 100, read-out: Plant response rating, Blackgrass) | Corn plant response rating (crop injury, 0 = no effect, 100 = complete kill) at 31 g/ha (corn (Zea mays); Zea mays, pre-emergence, Preemergence, scale 0 to 100 (0 no effect, 100 complete control))
80%: pest or weed control at 62 g/ha ([1]; Eriochloa villosa, post-emergence, Postemergence, scale 0 to 100, 0 no effect, read-out: Plant response rating, Cupgrass, Woolly) | pest or weed control at 16 g/ha ([8]; Digitaria sanguinalis, post-emergence, Postemergence, 16 g ai/ha, scale 0 to 100, read-out: Plant response rating, Crabgrass, Large)
85: Blackgrass plant response rating [2, 18] | Blackgrass plant response rating [2, 19]
90%: pest or weed control at 31 g/ha ([2]; Alopecurus myosuroides, post-emergence, Postemergence, scale 0 to 100, read-out: Plant response rating, Blackgrass)
0%: pest or weed control at 31 g/ha [3, 14] | pest or weed control at 62 g/ha [3, 15] | pest or weed control at 31 g/ha [3, 16] | pest or weed control at 62 g/ha [3, 17] | Corn plant response rating (crop injury, 0 = no effect, 100 = complete kill) at 16 g/ha (corn (Zea mays); Zea mays, post-emergence, Postemergence, 16 g ai/ha, scale 0 to 100) | pest or weed control at 31 g/ha [5, 14] | pest or weed control at 62 g/ha [5, 15] | pest or weed control at 31 g/ha [5, 16] | pest or weed control at 62 g/ha [5, 17] | pest or weed control at 31 g/ha [6, 14] | pest or weed control at 62 g/ha [6, 15] | pest or weed control at 31 g/ha [6, 16] | pest or weed control at 62 g/ha [6, 17] | pest or weed control at 16 g/ha ([7]; Xanthium strumarium, post-emergence, Postemergence, 16 g ai/ha, scale 0 to 100, read-out: Plant response rating, Cocklebur) | pest or weed control at 31 g/ha ([7]; Xanthium strumarium, post-emergence, Postemergence, scale 0 to 100, read-out: Plant response rating, Cocklebur) | pest or weed control at 62 g/ha ([7]; Xanthium strumarium, post-emergence, Postemergence, scale 0 to 100, 0 no effect, read-out: Plant response rating, Cocklebur) | pest or weed control at 31 g/ha ([7]; Xanthium strumarium, pre-emergence, Preemergence, scale 0 to 100 (0 no effect, 100 complete control), read-out: Plant response rating, Cocklebur) | pest or weed control at 62 g/ha ([7]; Xanthium strumarium, pre-emergence, Preemergence, 0 to 100 scale, 0 no effect, read-out: Plant response rating, Cocklebur) | pest or weed control at 31 g/ha ([9]; Galium aparine, pre-emergence, 31 g ai/ha, scale 0 to 100 (0 no effect, 100 complete control), read-out: Plant response rating, Galium) | pest or weed control at 62 g/ha ([9]; Galium aparine, pre-emergence, 62 g ai/ha, 0 to 100 scale, 0 no effect, 100 complete control, read-out: Plant response rating, Galium) | pest or weed control at 31 g/ha [10, 14] | pest or weed control at 62 g/ha [10, 15] | pest or weed control at 31 g/ha [11, 14] | pest or weed control at 62 g/ha [11, 15] | pest or weed control at 31 g/ha [11, 16] | pest or weed control at 62 g/ha [11, 17]
98%: pest or weed control at 62 g/ha (wild oat (Avena fatua); [15]) | pest or weed control at 62 g/ha ([2]; Alopecurus myosuroides, post-emergence, Postemergence, scale 0 to 100, 0 no effect, read-out: Plant response rating, Blackgrass) | pest or weed control at 31 g/ha ([2]; Alopecurus myosuroides, pre-emergence, Preemergence, scale 0 to 100 (0 no effect, 100 complete control), read-out: Plant response rating, Blackgrass) | pest or weed control at 31 g/ha ([4]; Setaria viridis, post-emergence, Postemergence, scale 0 to 100, read-out: Plant response rating, Foxtail, Green) | pest or weed control at 62 g/ha ([4]; Setaria viridis, post-emergence, Postemergence, scale 0 to 100, 0 no effect, read-out: Plant response rating, Foxtail, Green) | pest or weed control at 31 g/ha ([4]; Setaria viridis, pre-emergence, Preemergence, scale 0 to 100 (0 no effect, 100 complete control), read-out: Plant response rating, Foxtail, Green) | pest or weed control at 62 g/ha ([8]; Digitaria sanguinalis, post-emergence, Postemergence, scale 0 to 100, 0 no effect, read-out: Plant response rating, Crabgrass, Large)
100: Crabgrass, Large plant response rating [8, 19]
30: Oat, Wild plant response rating (wild oat (Avena fatua); [12]) | Foxtail, Green plant response rating [4, 18]
65%: pest or weed control at 16 g/ha ([1]; Eriochloa villosa, post-emergence, Postemergence, 16 g ai/ha, scale 0 to 100, read-out: Plant response rating, Cupgrass, Woolly)
100%: pest or weed control at 31 g/ha ([1]; Eriochloa villosa, pre-emergence, Preemergence, scale 0 to 100 (0 no effect, 100 complete control), read-out: Plant response rating, Cupgrass, Woolly) | pest or weed control at 62 g/ha ([1]; Eriochloa villosa, pre-emergence, Preemergence, 0 to 100 scale, 0 no effect, read-out: Plant response rating, Cupgrass, Woolly) | pest or weed control at 62 g/ha ([2]; Alopecurus myosuroides, pre-emergence, Preemergence, 0 to 100 scale, 0 no effect, read-out: Plant response rating, Blackgrass) | Corn plant response rating (crop injury, 0 = no effect, 100 = complete kill) at 62 g/ha (corn (Zea mays); Zea mays, pre-emergence, Preemergence, 0 to 100 scale, 0 no effect) | pest or weed control at 62 g/ha ([4]; Setaria viridis, pre-emergence, Preemergence, 0 to 100 scale, 0 no effect, read-out: Plant response rating, Foxtail, Green) | pest or weed control at 31 g/ha ([8]; Digitaria sanguinalis, pre-emergence, Preemergence, scale 0 to 100 (0 no effect, 100 complete control), read-out: Plant response rating, Crabgrass, Large) | pest or weed control at 62 g/ha ([8]; Digitaria sanguinalis, pre-emergence, Preemergence, 0 to 100 scale, 0 no effect, read-out: Plant response rating, Crabgrass, Large) | pest or weed control at 62 g/ha [10, 17]
